In US3988466A, “Prevention of gastric lesions” (priority 1973, dated 1976):

Key:
[1] = system: gastric secretion in pylorus-ligated rats; experiment: Effect of L-glutamine on gastric secretion in pylorus-ligated rats (Experiment 4); assay type: in vivo, male Donryu strain rats; settings: for Gastric juice volume / Pepsin concentration / Titrable acidity: 7 hours; for Acid output: volume × titrable acidity / 7 hours
Description: In this Experiment, 7 groups of male Donryu strain rats are used. After 24 hours of fasting, the pylorus of the animal is ligated in the same manner as described in Experiment 1. Six groups are treated in the same manner as described in Experiment 1 except for the injection of the solution of pontamine sky blue 6BX in saline. A seventh group (normal) is treated twice with 5 ml/kg of 1% carboxymethylcellulose solution.
After 7 hours of pylorus ligation, the animals are killed and the stomach is removed. The gastric juice is collected and the volume is measured. The gastric juice is titrated to pH 7.4 with 0.1N NaOH using an electromatic pH meter. The concentration of pepsin in the gastric juice is also determined according to Anson's hemoglobin method [Anson, M. L., J. Gen. Physiol.

[2] = pH of amino acids in 1% carboxymethylcellulose solution; assay type: physicochemical; settings: 150 mg/ml in 1% carboxymethylcellulose solution
Description: The pH values of the amino acids are also determined. The amino acids are separately dissolved or suspended in 1% carboxymethylcellulose solution at a concentration of 150 mg/ml and the pH is measured on an Hitachi pH meter (product of Hitachi Ltd., Japan).

[3] = system: yeast-induced fever in rats; experiment: Effect of L-glutamine on antipyretic activity of aspirin in rats (Experiment B); assay type: in vivo, male Wistar strain rats; settings: for Rectal temperature: L-glutamine 1000 mg/kg oral
Description: In this Experiment, male Wistar strain rats weighing about 90-100 g are treated with 2.5 ml/rat of a suspension of yeast (Brewers Yeast, product of Nutritional Biochem. Co., U.S.A.) in physiological saline (concentration: 250 mg/ml), by subcutaneous injection in the back, according to the method of Gleen et al [Gleen, E. M. et al: J. Pharma. Exp. Therp., 155, 157 (1967)]. The animals are then fasted. The animals showing an increased rectal temperature of 38° C or more after 17 hours are selected for use in experiment. […] As a control, one group is treated with 105 ml of 1% carboxymethylcellulose solution alone. After the treatment, the rectal temperature is measured at the time indicated.

experimental ulcers = settings: induced by stress, pylorus ligation, histamine, reserpine or cortisone; cited from earlier work
[4] = system: acetic acid-induced writhing response in mice; experiment: Effect of L-glutamine on analgesic activity of aspirin in mice (Experiment C); assay type: in vivo, male dd strain mice; settings: presence of L-glutamine
Description: In this Experiment, 3 groups of male dd strain mice weighing 19-21 g are used.
As a control, the third group is treated only with 1% carboxymethylcellulose solution. After a control period of one hour, the animals are treated with 0.2 ml of 0.7% acetic acid solution in physiological saline by intraperitoneal injection, according to the method of Koster et al. [Koster, R. et al: Fed. Proc., 18, 412 (1959)]. Starting 10 minutes after the administration of acetic acid, the number of writhing reaction occurred in 10 minutes is counted.

[5] = system: carageenin-induced paw edema in rats; experiment: Effect of L-glutamine on anti-inflammatory activity of aspirin in rats (Experiment D); assay type: in vivo, male Donryu strain rats
Description: As a control, a sixth group is treated with 1% carboxymethylcellulose solution. After one hour, the animals are treated with a phlogistic agent of 0.1 ml of 1% carrageenin solution by subcutaneous injection in a hind paw, according to the method of Yamasaki et al. [Yamasaki, H. et al: Folia Pharm. Jap., 63, 302 (1967)]. Swelling of the paw is measured 5 hours after the administration of the phlogistic agent.

[6] = system: aspirin-induced gastric lesions in pylorus-ligated rats; experiment: Effect of various amino acids on aspirin-induced gastric lesions in pylorus-ligated rats (Experiment 3); assay type: in vivo, male Donryu strain rats
[7] = system: indomethacin-induced gastric lesions in pylorus-ligated rats; experiment: Effect of L-glutamine on indomethacin-induced gastric lesions in pylorus-ligated rats (Experiment 2); assay type: in vivo, male Donryu strain rats; settings: for Ulcer index / Inhibition: indomethacin 20 mg/kg i.p.; for Inhibition: vs control ulcer index
Description: In this Experiment, 8 groups of male Donryu strain rats are used. The animals are fasted for 24 hours but water is allowed ad libitum. Under ether anesthesia, the pylorus is ligated according to the standard method of Shay et al. Seven groups are treated with graded doses of L-glutamine suspended in 1% carboxymethylcellulose solution by oral administration immediately after the pylorus ligation. An eighth group (control) is treated with 5 ml/kg of 1% carboxymethylcellulose solution alone. Following a control period of 10 minutes, the animals are treated with 20 mg/kg of indomethacin suspended in a trace amount of Tween 80 (trade name of Atlas Chemical Industries Inc., U.S.A.) by intraperitoneal injection. Thereafter, the animals are treated in the same manner as described in Experiment 1 and the length of lesions is measured.

[8] = L-glutamine 62.5 mg/kg, aspirin 100 mg/kg
[9] = L-glutamine 125 mg/kg, aspirin 100 mg/kg
[10] = L-glutamine 250 mg/kg, aspirin 100 mg/kg
[11] = L-glutamine 500 mg/kg, aspirin 100 mg/kg
[12] = L-glutamine 1000 mg/kg in presence of aspirin
[13] = L-glutamine 1,000 mg/kg, aspirin 100 mg/kg
[14] = L-glutamine 1000 mg/kg oral, 5 hours after phlogistic agent

- Amino acid pH [2]: 6.65
SMILES: NC(=O)CC[C@H](N)C(=O)O [L-glutamine]
- acid parameters (in words) ([1]; L-glutamine 62.5 mg/kg in presence of aspirin): almost the same as those of the control group
- Gastric juice volume [1, 8]: 12.3 ± 0.5 mL
- Pepsin concentration [1, 8]: 26.3 ± 0.5 mg/mL
- Titrable acidity [1, 8]: 56.2±3.8 mEq/L
- Acid output [1, 8]: 97.8±6.5 μEq/hr
- Gastric juice volume [1, 9]: 12.1 ± 0.6 mL
- Pepsin concentration [1, 9]: 25.5 ± 0.8 mg/mL
- Titrable acidity [1, 9]: 88.9±4.8 mEq/L
- Acid output [1, 9]: 154.0±12.1 μEq/hr
- appearance of gastric juices compared with control group ([1]; L-glutamine 250 mg/kg or more, aspirin 100 mg/kg): relatively clear
- Gastric juice volume [1, 10]: 12.5 ± 0.5 mL
- Pepsin concentration [1, 10]: 27.1 ± 0.7 mg/mL
- Titrable acidity [1, 10]: 108.0±4.2 mEq/L
- Acid output [1, 10]: 194.1±13.5 μEq/hr
- change in acid parameters (in words) ([1]; L-glutamine 500 mg/kg in presence of aspirin): No significant change
- Gastric juice volume [1, 11]: 11.9 ± 0.4 mL
- Pepsin concentration [1, 11]: 25.4 ± 0.7 mg/mL
- Titrable acidity [1, 11]: 127.1±4.6 mEq/L
- Acid output [1, 11]: 215.5±10.3 μEq/hr
- effect on acid output (in words) [1, 12]: considerably increases the titrable acidity and acid output
- effect on titrable acidity (in words) [1, 12]: considerably increases the titrable acidity
- Gastric juice volume [1, 13]: 12.2 ± 0.3 mL
- Pepsin concentration [1, 13]: 23.6 ± 1.1 mg/mL
- Titrable acidity [1, 13]: 139.4±3.4 mEq/L
- Acid output [1, 13]: 243.9±8.1 μEq/hr
- pepsin concentration (in words) ([1]; L-glutamine at a wide range of doses): maintained at a normal level
- Rectal temperature ([3]; 0 hour): 38.6±0.2 °C
- Rectal temperature ([3]; 1 hour): 38.5±0.2 °C
- Rectal temperature ([3]; 2 hours): 38.2±0.3 °C
- Rectal temperature ([3]; 4 hours): 38.1±0.4 °C
- Rectal temperature ([3]; 6 hours): 38.2±0.3 °C
- influence on antipyretic activity of aspirin ([3]; presence of L-glutamine): not substantially influenced
- prevention or treatment of certain experimental ulcers (experimental ulcers): effective for the prevention or treatment of certain experimental ulcers
- influence on analgesic activity of aspirin [4]: not substantially influenced
- Suppression ratio [5, 14]: 5.4%
- Swelling ratio [5, 14]: 117.2±4.7%
- influence on anti-inflammatory activity of aspirin ([5]; presence of L-glutamine): not substantially influenced
- inhibition in vivo at 750 mg/kg ([6]; Rattus norvegicus, po, read-out: Inhibition): 87.8%
- Ulcer index ([6]; amino acid 750 mg/kg oral, aspirin by gastric intubation): 5.5±2.0 mm
- effect on the prevention of indomethacin-induced gastric lesions ([7]; L-glutamine 15.6 mg/kg): no effect
- Ulcer index ([7]; L-glutamine 15.6 mg/kg oral): 12.1±3.5 mm
- Inhibition ([7]; L-glutamine 15.6 mg/kg oral): 3.2%
- inhibition of gastric lesions (in words) ([7]; L-glutamine 31.3 mg/kg): fairly inhibits the gastric lesions but the inhibition is not significant
- Ulcer index ([7]; L-glutamine 31.3 mg/kg oral): 5.0±1.1 mm
- Inhibition ([7]; L-glutamine 31.3 mg/kg oral): 60.0%
- prevention of indomethacin-induced gastric lesions ([7]; L-glutamine 62.5 mg/kg - 1000 mg/kg): effective for the prevention of indomethacin-induced gastric lesions
- Ulcer index ([7]; L-glutamine 62.5 mg/kg oral): 2.6±0.8 mm
- Inhibition ([7]; L-glutamine 62.5 mg/kg oral): 79.2%
- Ulcer index ([7]; L-glutamine 125 mg/kg oral): 3.9±1.5 mm
- Inhibition ([7]; L-glutamine 125 mg/kg oral): 68.8%
- Ulcer index ([7]; L-glutamine 250 mg/kg oral): 2.4±0.4 mm
- Inhibition ([7]; L-glutamine 250 mg/kg oral): 80.8%
- Ulcer index ([7]; L-glutamine 500 mg/kg oral): 1.6±0.7 mm
- Inhibition ([7]; L-glutamine 500 mg/kg oral): 87.2%
- Ulcer index ([7]; L-glutamine 1,000 mg/kg oral): 0.5±0.3 mm
- Inhibition ([7]; L-glutamine 1,000 mg/kg oral): 96.0%
